Data on eleven compounds can be found in patent publication US9850283B2, “Macrocyclic inhibitors of the PD-1/PD-L1 and CD80(B7-1)/PD-L1 protein/protein interactions” (BRISTOL-MYERS SQUIBB COMPANY, priority 2013, dated 2017).

For one experiment, the target named is T1, Human PD-L1/PD-1 (Homo sapiens, UniProt Q9NZQ7).
T1 construct: made in house; host or cells: HEK293T
Nature of the experiment: HTRF PD-1-Ig/PD-L1-His binding assay (human PD-L1). The conditions noted are these: read-out: HTRF Human PD-L1/PD-1 Binding Assay IC50. The essentials:
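The time-resolved fluorescence signal comes from Eu-cryptate anti-Ig (1 nM) and APC anti-His (20 nM) antibodies bound to a PD-1-Ig/PD-L1-His complex. Both partners lack transmembrane regions.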
A general note: Time-resolved FRET reads energy transfer from a long-lived donor to a nearby acceptor.

The target of the next experiment is Hu PD-L1/PD-1 (Homo sapiens, UniProt Q9NZQ7). In words: Cell binding assay Hu PD-L1/PD-1 (Tables 11-13, cell line not given). In kind it is cell-based. How it is done:
The ability of the macrocyclic peptides of the present disclosure to bind to Jurkat, mouse B cell line (LK35.2), and a human lung adenocarcinoma cell line (L2987) was investigated. Jurkat-PD-1 Cell Binding Assay. Phycoerythrin (PE) was covalently linked to the Ig epitope tag of human PD-L1-Ig and fluorescently-labeled PD-L1-Ig was used for binding studies with a Jurkat cell line over-expressing human PD-1 (Jurkat-PD-1). […] Cells were washed 3× in dPBS. Cells were resuspended in 200 μl of dPBS and binding was measured by flow cytometry. LK35.2-hPD-L1 Cell Binding Assay. Phycoerythrin (PE) was covalently linked to the Ig eptitope tag of human PD-1-Ig and fluorescently-labeled PD-1-Ig was used for binding studies with a mouse B cell line (LK35.2) stably over-expressing human PD-L1 (LK35.2-hPD-L1). Briefly, […] LK35.2-hPD-L1 cells were pre-incubated with inhibitor for 15 m in a 30 μl volume of RPMI supplemented with 2% fetal calf serum. 20 μl of PE-labeled PD-1-Ig (2 nM final), diluted in RPMI supplemented with 2% fetal calf serum, was dispensed on top of cells and inhibitor and binding was allowed to take place for 1 h at room temperature. Cells were washed 3× in dPBS. Cells were resuspended in 200 μl of dPBS and binding was measured by flow cytometry. L2987 Cellomics Cell Binding Assay. Phycoerythrin (PE) was covalently linked to the Ig eptitope tag of human PD-1-Ig and fluorescently-labeled PD-1-Ig was used for binding studies with a human lung adenocarcinoma cell line (L2987) which naturally expresses PD-L1. […] The following day, inhibitors were diluted in serum-free DMEM and 25 μl was dispensed on top of cells. […] Samples were incubated for 1 h at 37° C. followed by 2 washes in dPBS and fixation for 30 m with 4% paraformaldehyde. Samples were further washed 2× in dPBS. Hoechst (final 1 μg/ml) was added to final wash to stain nuclei. Plates were processed using a Cellomics […]®.

Setting [1] is: Table 8, Compound No. 1 variant macrocyclic peptides.
[2] abbreviates: Table 9, Compound No. 71 variant macrocyclic peptides.
Setting [3] is: Table 13, Compound No. 71 series.

Where two headings read alike, the source gives them in different places. Positions of bridges follow the written chain, without caps; N, C: chain ends. Non-standard residues stand in square brackets, D forms with d. Residues, ends and D or L forms follow the SMILES beside them. ξ: configuration not given here. Phe(4-Cl) = N[C@@H](Cc1ccc(Cl)cc1)C(=O)O; 1Nal = N[C@@H](Cc1cccc2ccccc12)C(=O)O; 2Nal = N[C@@H](Cc1ccc2ccccc2c1)C(=O)O; NMeNle = CCCC[C@H](NC)C(=O)O; NMeA = CN[C@@H](C)C(=O)O; ξNMeA = CNC(C)C(=O)O; ξP = O=C(O)C1CCCN1; Sar = CNCC(=O)O

T1 sequence (Q9NZQ7 with tags, fused parts or gaps): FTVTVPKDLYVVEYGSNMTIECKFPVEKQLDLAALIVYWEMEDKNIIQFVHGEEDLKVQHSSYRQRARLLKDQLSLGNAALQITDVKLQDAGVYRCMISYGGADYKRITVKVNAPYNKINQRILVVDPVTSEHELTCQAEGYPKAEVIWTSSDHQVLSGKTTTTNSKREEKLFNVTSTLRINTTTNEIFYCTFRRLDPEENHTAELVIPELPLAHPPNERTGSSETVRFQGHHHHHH
Hu PD-L1/PD-1, sequence (Q9NZQ7 19-290): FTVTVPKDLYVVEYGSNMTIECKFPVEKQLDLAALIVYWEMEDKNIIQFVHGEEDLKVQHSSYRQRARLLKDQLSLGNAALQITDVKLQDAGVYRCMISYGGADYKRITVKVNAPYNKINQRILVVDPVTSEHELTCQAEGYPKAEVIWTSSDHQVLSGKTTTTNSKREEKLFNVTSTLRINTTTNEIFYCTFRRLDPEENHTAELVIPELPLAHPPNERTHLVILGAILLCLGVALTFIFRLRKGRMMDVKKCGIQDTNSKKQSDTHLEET

Regarding `CCCC[C@H]1C(=O)N(C)[C@@H](CCCC)C(=O)N[C@@H](CCCNC(=N)N)C(=O)N[C@H](C(=O)NCC(N)=O)CSCC(=O)N[C@@H](Cc2ccc(O)cc2)C(=O)N(C)[C@@H](C)C(=O)N[C@@H](CC(N)=O)C(=O)N2CCC[C@H]2C(=O)N[C@@H](Cc2cnc[nH]2)C(=O)N[C@@H](CC(C)C)C(=O)N(C)CC(=O)N[C@@H](Cc2c[nH]c3ccccc23)C(=O)N[C@@H](CO)C(=O)N[C@@H](Cc2c[nH]c3ccccc23)C(=O)N1C` [Compound No. 30], the IC50 at Human PD-L1/PD-1 (setting [1]) was found to be 5 nM; at Hu PD-L1/PD-1, 3 nM.
Regarding `CCCC[C@H]1C(=O)N(C)[C@@H](CCCC)C(=O)N[C@@H](CCCNC(=N)N)C(=O)N[C@H](C(=O)NCC(N)=O)CSCC(=O)N[C@@H](Cc2ccccc2)C(=O)N(C)C(C)C(=O)N[C@@H](CC(N)=O)C(=O)N2CCC[C@H]2C(=O)N[C@@H](Cc2cnc[nH]2)C(=O)N[C@@H](CC(C)C)C(=O)N[C@@H](Cc2cnc[nH]2)C(=O)N[C@@H](Cc2c[nH]c3ccccc23)C(=O)N[C@@H](CO)C(=O)N[C@@H](Cc2c[nH]c3ccccc23)C(=O)N1C` (stereo partly shown) [Compound No. 53] ({CH2CO}-F[ξNMeA]NPHLHWSW[NMeNle][NMeNle]RCG-NH2; thioether N-14), the IC50 on Human PD-L1/PD-1 (setting [1]) came to 34 nM; at Hu PD-L1/PD-1 it was 47 nM.
The corresponding values for `CCCC[C@H]1C(=O)N(C)[C@@H](CCCC)C(=O)N[C@@H](CCCNC(=N)N)C(=O)N[C@@H](C(=O)NCC(N)=O)CSCC(=O)N[C@@H](Cc2cccc3ccccc23)C(=O)N(C)[C@@H](C)C(=O)N[C@@H](CC(N)=O)C(=O)N2CCC[C@H]2C(=O)N[C@@H](Cc2cnc[nH]2)C(=O)N[C@@H](CC(C)C)C(=O)N(C)CC(=O)N[C@@H](Cc2c[nH]c3ccccc23)C(=O)N[C@@H](CO)C(=O)N[C@@H](Cc2c[nH]c3ccccc23)C(=O)N1C` [Compound No. 27] ({CH2CO}-[1Nal][NMeA]NPHL[Sar]WSW[NMeNle][NMeNle]R[dC]G-NH2; thioether N-14) are 20 nM and 28 nM.
`CCCC[C@H]1C(=O)N(C)[C@@H](CCCC)C(=O)N[C@@H](CCCNC(=N)N)C(=O)N[C@H](C(=O)NCC(N)=O)CSCC(=O)N[C@@H](Cc2ccccc2)C(=O)N(C)[C@@H](C)C(=O)N[C@@H](CC(N)=O)C(=O)N2CCC[C@H]2C(=O)N[C@@H](Cc2cnc[nH]2)C(=O)N[C@@H](CC(C)C)C(=O)N2CCC[C@H]2C(=O)N[C@@H](Cc2c[nH]c3ccccc23)C(=O)N[C@@H](CO)C(=O)N[C@@H](Cc2c[nH]c3ccccc23)C(=O)N1C` [Compound No. 55] ({CH2CO}-F[NMeA]NPHLPWSW[NMeNle][NMeNle]RCG-NH2; thioether N-14): the IC50 on Human PD-L1/PD-1 (setting [1]) stood at 4 nM; on Hu PD-L1/PD-1, 3 nM.
The corresponding values for `CCCC[C@H]1C(=O)N(C)[C@@H](CCCC)C(=O)N[C@@H](CCCNC(=N)N)C(=O)N[C@H](C(=O)NCC(N)=O)CSCC(=O)N[C@@H](Cc2ccccc2)C(=O)N(C)[C@@H](C)C(=O)N[C@@H](CC(N)=O)C(=O)N2CCCC2C(=O)N[C@@H](Cc2cnc[nH]2)C(=O)N[C@@H](CC(C)C)C(=O)N(C)[C@@H](C)C(=O)N[C@@H](Cc2c[nH]c3ccccc23)C(=O)N[C@@H](CO)C(=O)N[C@@H](Cc2c[nH]c3ccccc23)C(=O)N1C` (stereo partly shown) [Compound No. 13] ({CH2CO}-F[NMeA]N[ξP]HL[NMeA]WSW[NMeNle][NMeNle]RCG-NH2; thioether N-14) are 16 nM and 35 nM.
As to `CCCC[C@H]1C(=O)N(C)[C@@H](CCCC)C(=O)N[C@@H](CCCNC(=N)N)C(=O)N[C@H](C(=O)NCC(N)=O)CSCC(=O)N[C@@H](Cc2ccc(Cl)cc2)C(=O)N(C)[C@@H](C)C(=O)N[C@@H](CC(N)=O)C(=O)N2CCC[C@H]2C(=O)N[C@@H](Cc2cnc[nH]2)C(=O)N[C@@H](CC(C)C)C(=O)N(C)CC(=O)N[C@@H](Cc2c[nH]c3ccccc23)C(=O)N[C@@H](CO)C(=O)N[C@@H](Cc2c[nH]c3ccccc23)C(=O)N1C` [Compound No. 33] ({CH2CO}-[Phe(4-Cl)][NMeA]NPHL[Sar]WSW[NMeNle][NMeNle]RCG-NH2; thioether N-14), the IC50 on Human PD-L1/PD-1 (setting [1]) worked out at 9 nM; at Hu PD-L1/PD-1, 7 nM.
The like results for `CCCC[C@H]1C(=O)N(C)[C@@H](CCCC)C(=O)N[C@@H](CCCNC(=N)N)C(=O)N[C@H](C(=O)NCC(N)=O)CSCC(=O)N[C@@H](Cc2ccccc2)C(=O)N(C)[C@@H](C)C(=O)N[C@@H](CC(N)=O)C(=O)N2CCC[C@H]2C(=O)N[C@@H](Cc2c[nH]cn2)C(=O)N[C@@H](CC(C)C)C(=O)N[C@@H](CCN)C(=O)N[C@@H](Cc2c[nH]c3ccccc23)C(=O)N[C@@H](CO)C(=O)N[C@@H](Cc2c[nH]c3ccccc23)C(=O)N1C` [Compound No. 52] were, in that order, 24 nM and 108 nM.
For `CCCC[C@H]1C(=O)N(C)[C@@H](CCCC)C(=O)N[C@@H](CCCNC(=N)N)C(=O)N[C@H](C(=O)NCC(N)=O)CSCC(=O)N[C@@H](Cc2ccccc2)C(=O)N(C)[C@@H](C)C(=O)N[C@@H](CC(N)=O)C(=O)N2CCCC2C(=O)N[C@@H](C)C(=O)N[C@@H](CC(C)C)C(=O)N(C)CC(=O)N[C@@H](Cc2c[nH]c3ccccc23)C(=O)N[C@@H](CO)C(=O)N[C@@H](Cc2c[nH]c3ccccc23)C(=O)N1C` (stereo partly shown) [Compound No. 10] ({CH2CO}-F[NMeA]N[ξP]AL[Sar]WSW[NMeNle][NMeNle]RCG-NH2; thioether N-14), the IC50 on Human PD-L1/PD-1 (setting [1]) is 16 nM; on Hu PD-L1/PD-1 it was 82 nM.
In the case of `CCCC[C@H]1C(=O)N(C)CC(=O)N[C@@H](CC(=O)O)C(=O)N[C@@H](C(C)C)C(=O)N(C)[C@@H](Cc2ccccc2)C(=O)N[C@@H](Cc2ccc(O)cc2)C(=O)N(C)CC(=O)N[C@@H](Cc2c[nH]c3ccccc23)C(=O)N[C@@H](Cc2ccc(O)cc2)C(=O)N[C@@H](C)C(=O)N[C@H](C(=O)NCC(N)=O)CSCC(=O)N[C@@H](Cc2ccccc2)C(=O)N(C)[C@@H](Cc2ccccc2)C(=O)N1C` [Compound No. 87] (HELM PEPTIDE1{[O=C(C[*:3])[*:2]].F.[meF].[CCCC[C@@H](C(=O)[*:2])N(C)[*:1]].[Sar].D.V.[meF].Y.[Sar].W.Y.A.C.G.[am]}$PEPTIDE1,PEPTIDE1,1:R3-14:R3$$$V2.0), the figures for the IC50 on Human PD-L1/PD-1 (setting [2]) and on Hu PD-L1/PD-1 (setting [3]) were 25 nM and 73 nM, respectively.
As to `CCCC[C@H]1C(=O)N(C)[C@@H](CCCC)C(=O)N[C@@H](CCCNC(=N)N)C(=O)N[C@@H](C(=O)NCC(N)=O)CSCC(=O)N[C@@H](Cc2ccc3ccccc3c2)C(=O)N(C)[C@@H](C)C(=O)N[C@@H](CC(N)=O)C(=O)N2CCC[C@H]2C(=O)N[C@@H](Cc2cnc[nH]2)C(=O)N[C@@H](CC(C)C)C(=O)N(C)CC(=O)N[C@@H](Cc2c[nH]c3ccccc23)C(=O)N[C@@H](CO)C(=O)N[C@@H](Cc2c[nH]c3ccccc23)C(=O)N1C` [Compound No. 26] ({CH2CO}-[2Nal][NMeA]NPHL[Sar]WSW[NMeNle][NMeNle]R[dC]G-NH2; thioether N-14), the IC50 on Human PD-L1/PD-1 (setting [1]) worked out at 15 nM; at Hu PD-L1/PD-1, 13 nM.
`CCCC[C@H]1C(=O)N(C)CC(=O)N[C@@H](CC(=O)O)C(=O)N[C@@H](C(C)C)C(=O)N(C)[C@@H](C)C(=O)N[C@@H](Cc2ccc(O)cc2)C(=O)N(C)CC(=O)N[C@@H](Cc2c[nH]c3ccccc23)C(=O)N[C@@H](Cc2ccc(O)cc2)C(=O)N[C@@H](CC(C)C)C(=O)N[C@H](C(=O)NCC(N)=O)CSCC(=O)N[C@@H](Cc2ccccc2)C(=O)N(C)[C@@H](Cc2ccccc2)C(=O)N1C` [Compound No. 81] (HELM PEPTIDE1{[O=C(C[*:3])[*:2]].F.[meF].[CCCC[C@@H](C(=O)[*:2])N(C)[*:1]].[Sar].D.V.[meA].Y.[Sar].W.Y.L.C.G.[am]}$PEPTIDE1,PEPTIDE1,1:R3-14:R3$$$V2.0): the IC50 on Human PD-L1/PD-1 (setting [2]) and on Hu PD-L1/PD-1 (setting [3]) was over 10000 nM in each case.
